Results taken from US20070065472A1, “Benzyl-1,3-thiazolidine-2,4-dione compounds for stimulating or inducing the growth and/or for reducing the loss of keratin fibers” (L'OREAL, priority 2005, published 2007).

melting point: 84 to 85 °C
SMILES: O=C1NC(=O)C(Cc2ccccc2Oc2ccccc2)S1 (stereo not shown) [Example 1, 5-(2-phenoxybenzyl)-1,3-thiazolidine-2,4-dione]
